# Assays:
# Test in all cases: Test E pre-/postemergence greenhouse test, plant response rating 0-100
# Assay type in all cases: in vivo
# [1] = test system: giant foxtail (Setaria faberii); settings: Preemergence, scale 0 to 100
# [2] = test system: goosegrass (Eleusine indica); settings: Preemergence, scale 0 to 100
# [3] = test system: yellow nutsedge (Cyperus esculentus); settings: Preemergence, scale 0 to 100
# [4] = test system: ragweed (common ragweed, Ambrosia elatior); settings: Preemergence, scale 0 to 100
# Outline: (§1)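 Pre- and postemergence sprays, vehicle non-phytotoxic solvent containing surfactant; postemergence plants 2–18 cm tall at the 1–4-leaf stage. Scored against controls after 14 to 21 days in a greenhouse, 0 being no effect and 100 complete control.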
# [5] = test system: surinam grass (Brachiaria decumbens); settings: Preemergence, scale 0 to 100
# Outline: as §1
# [6] = test system: Italian ryegrass (Lolium multiflorum); settings: scale 0 to 100; for Ryegrass, Italian plant response rating: Preemergence
# Outline: as §1
# [7] = test system: field bindweed (Convolvulus arvensis); settings: scale 0 to 100; for Field Bindweed plant response rating: Preemergence
# Outline: as §1
# [8] = test system: corn (Zea mays); settings: scale 0 to 100; for Corn plant response rating: Preemergence
# Outline: as §1
# [9] = test system: soybean (Glycine max); settings: scale 0 to 100; for Soybean plant response rating: Preemergence
# Outline: as §1
# [10] = test system: green foxtail (Setaria viridis); settings: Preemergence, scale 0 to 100
# [11] = test system: large (Lg) crabgrass (Digitaria sanguinalis); settings: Preemergence, scale 0 to 100
# [12] = test system: morningglory (Ipomoea coccinea); settings: Preemergence, scale 0 to 100
# [13] = test system: johnsongrass (Sorghum halepense); settings: Preemergence, scale 0 to 100
# [14] = Lolium multiflorum, post-emergence, Postemergence, 31 g ai/ha
# [15] = Lolium multiflorum, post-emergence, Postemergence, 62 g ai/ha
# [16] = Lolium multiflorum, post-emergence, Postemergence, 125 g ai/ha
# [17] = Lolium multiflorum, post-emergence, Postemergence, 250 g ai/ha
# [18] = Convolvulus arvensis, post-emergence, Postemergence, 31 g ai/ha
# [19] = Convolvulus arvensis, post-emergence, Postemergence, 62 g ai/ha
# [20] = Convolvulus arvensis, post-emergence, Postemergence, 125 g ai/ha
# [21] = Convolvulus arvensis, post-emergence, Postemergence, 250 g ai/ha
# [22] = Zea mays, post-emergence, Postemergence, 31 g ai/ha
# [23] = Zea mays, post-emergence, Postemergence, 62 g ai/ha
# [24] = Zea mays, post-emergence, Postemergence, 125 g ai/ha
# [25] = Zea mays, post-emergence, Postemergence, 250 g ai/ha
# [26] = Glycine max, post-emergence, Postemergence, 31 g ai/ha
# [27] = Glycine max, post-emergence, Postemergence, 62 g ai/ha
# [28] = Glycine max, post-emergence, Postemergence, 125 g ai/ha
# [29] = Glycine max, post-emergence, Postemergence, 250 g ai/ha
smiles,measurement,setting,value
"CCn1cc(C(=O)c2ccccc2)c(-c2cc(Cl)cc(Cl)c2)n1 [Compound 31, [3-(3,5-dichlorophenyl)-1-ethyl-1H-pyrazol-4-yl]phenylmethanone]","Foxtail, Giant plant response rating",[1]; 62 g ai/ha,0
same,"Foxtail, Giant plant response rating",[1]; 125 g ai/ha,0
same,"Foxtail, Giant plant response rating",[1]; 250 g ai/ha,0
same,"Foxtail, Giant plant response rating",[1]; 500 g ai/ha,0
same,Goosegrass plant response rating,[2]; 62 g ai/ha,0
same,Goosegrass plant response rating,[2]; 125 g ai/ha,0
same,Goosegrass plant response rating,[2]; 250 g ai/ha,0
same,Goosegrass plant response rating,[2]; 500 g ai/ha,0
same,"Nutsedge, Yellow plant response rating",[3]; 62 g ai/ha,0
same,"Nutsedge, Yellow plant response rating",[3]; 125 g ai/ha,0
same,"Nutsedge, Yellow plant response rating",[3]; 250 g ai/ha,0
same,"Nutsedge, Yellow plant response rating",[3]; 500 g ai/ha,0
same,Ragweed plant response rating,[4]; 62 g ai/ha,0
same,Ragweed plant response rating,[4]; 125 g ai/ha,35
same,Ragweed plant response rating,[4]; 250 g ai/ha,50
same,Ragweed plant response rating,[4]; 500 g ai/ha,80
same,Surinam Grass plant response rating,[5]; 62 g ai/ha,0
same,Surinam Grass plant response rating,[5]; 125 g ai/ha,0
same,Surinam Grass plant response rating,[5]; 250 g ai/ha,0
same,Surinam Grass plant response rating,[5]; 500 g ai/ha,0
same,"Ryegrass, Italian plant response rating",[6]; 62 g ai/ha,0
same,"Ryegrass, Italian plant response rating",[6]; 125 g ai/ha,0
same,"Ryegrass, Italian plant response rating",[6]; 250 g ai/ha,0
same,"Ryegrass, Italian plant response rating",[6]; 500 g ai/ha,0
same,Field Bindweed plant response rating,[7]; 62 g ai/ha,0
same,Field Bindweed plant response rating,[7]; 125 g ai/ha,0
same,Field Bindweed plant response rating,[7]; 250 g ai/ha,0
same,Field Bindweed plant response rating,[7]; 500 g ai/ha,0
same,Corn plant response rating,[8]; 62 g ai/ha,0
same,Corn plant response rating,[8]; 125 g ai/ha,0
same,Corn plant response rating,[8]; 250 g ai/ha,0
same,Corn plant response rating,[8]; 500 g ai/ha,0
same,Soybean plant response rating,[9]; 62 g ai/ha,0
same,Soybean plant response rating,[9]; 125 g ai/ha,0
same,Soybean plant response rating,[9]; 250 g ai/ha,0
same,Soybean plant response rating,[9]; 500 g ai/ha,0
same,"Foxtail, Green plant response rating",[10]; 62 g ai/ha,0
same,"Foxtail, Green plant response rating",[10]; 125 g ai/ha,0
same,"Foxtail, Green plant response rating",[10]; 250 g ai/ha,0
same,"Foxtail, Green plant response rating",[10]; 500 g ai/ha,0
same,"Crabgrass, Large plant response rating",[11]; 62 g ai/ha,0
same,"Crabgrass, Large plant response rating",[11]; 125 g ai/ha,0
same,"Crabgrass, Large plant response rating",[11]; 250 g ai/ha,0
same,"Crabgrass, Large plant response rating",[11]; 500 g ai/ha,0
same,Morningglory plant response rating,[12]; 62 g ai/ha,0
same,Morningglory plant response rating,[12]; 125 g ai/ha,0
same,Morningglory plant response rating,[12]; 250 g ai/ha,0
same,Morningglory plant response rating,[12]; 500 g ai/ha,0
same,Johnsongrass plant response rating,[13]; 62 g ai/ha,0
same,Johnsongrass plant response rating,[13]; 125 g ai/ha,0
same,Johnsongrass plant response rating,[13]; 250 g ai/ha,0
same,Johnsongrass plant response rating,[13]; 500 g ai/ha,0
"CCCn1cc(C(=O)c2ccccc2)c(-c2cc(Cl)cc(Cl)c2)n1 [Compound 61, [3-(3,5-dichlorophenyl)-1-propyl-1H-pyrazol-4-yl]phenylmethanone]",pest or weed control at 31 g/ha,[6]; [14],0%
same,pest or weed control at 62 g/ha,[6]; [15],0%
same,pest or weed control at 125 g/ha,[6]; [16],0%
same,pest or weed control at 250 g/ha,[6]; [17],0%
same,pest or weed control at 500 g/ha,"[6]; Lolium multiflorum, post-emergence, Postemergence, 500 g ai/ha",0%
same,pest or weed control at 31 g/ha,[7]; [18],0%
same,pest or weed control at 62 g/ha,[7]; [19],0%
same,pest or weed control at 125 g/ha,[7]; [20],0%
same,pest or weed control at 250 g/ha,[7]; [21],0%
same,pest or weed control at 500 g/ha,"[7]; Convolvulus arvensis, post-emergence, Postemergence, 500 g ai/ha",5%
same,"Corn plant response rating (crop injury, 0 = no effect, 100 = complete kill) at 31 g/ha",[8]; [22],0%
same,"Corn plant response rating (crop injury, 0 = no effect, 100 = complete kill) at 62 g/ha",[8]; [23],0%
same,"Corn plant response rating (crop injury, 0 = no effect, 100 = complete kill) at 125 g/ha",[8]; [24],0%
same,"Corn plant response rating (crop injury, 0 = no effect, 100 = complete kill) at 250 g/ha",[8]; [25],0%
same,"Corn plant response rating (crop injury, 0 = no effect, 100 = complete kill) at 500 g/ha","[8]; Zea mays, post-emergence, Postemergence, 500 g ai/ha",0%
same,plant injury at 31 g/ha,[9]; [26],0%
same,plant injury at 62 g/ha,[9]; [27],0%
same,plant injury at 125 g/ha,[9]; [28],0%
same,plant injury at 250 g/ha,[9]; [29],0%
same,plant injury at 500 g/ha,"[9]; Glycine max, post-emergence, Postemergence, 500 g ai/ha",10%
"Clc1cc(Cl)cc(-c2n[nH]cc2C(=NN2CCCC2)c2ccccc2)c1 [Compound 30, N-[[3-(3,5-dichlorophenyl)-1H-pyrazol-4-yl]phenylmethylene]-1-pyrrolidinamine]",pest or weed control at 31 g/ha,[6]; [14],0%
same,pest or weed control at 62 g/ha,[6]; [15],0%
same,pest or weed control at 125 g/ha,[6]; [16],0%
same,pest or weed control at 250 g/ha,[6]; [17],5%
same,pest or weed control at 16 g/ha,"[7]; Convolvulus arvensis, post-emergence, Postemergence, 16 g ai/ha",0%
same,pest or weed control at 31 g/ha,[7]; [18],0%
same,pest or weed control at 62 g/ha,[7]; [19],0%
same,pest or weed control at 125 g/ha,[7]; [20],0%
same,pest or weed control at 250 g/ha,[7]; [21],0%
same,"Corn plant response rating (crop injury, 0 = no effect, 100 = complete kill) at 16 g/ha","[8]; Zea mays, post-emergence, Postemergence, 16 g ai/ha",0%
same,"Corn plant response rating (crop injury, 0 = no effect, 100 = complete kill) at 31 g/ha",[8]; [22],0%
same,"Corn plant response rating (crop injury, 0 = no effect, 100 = complete kill) at 62 g/ha",[8]; [23],0%
same,"Corn plant response rating (crop injury, 0 = no effect, 100 = complete kill) at 125 g/ha",[8]; [24],0%
same,"Corn plant response rating (crop injury, 0 = no effect, 100 = complete kill) at 250 g/ha",[8]; [25],0%
same,plant injury at 31 g/ha,[9]; [26],0%
same,plant injury at 62 g/ha,[9]; [27],0%
same,plant injury at 125 g/ha,[9]; [28],0%
same,plant injury at 250 g/ha,[9]; [29],0%
Fc1ccc(NN=C(c2ccccc2)c2c[nH]nc2-c2cc(Cl)cc(Cl)c2)cc1 [Compound 35],"Plant response rating, Ryegrass, Italian","[6]; Postemergence, 31 g ai/ha",0
same,"Plant response rating, Ryegrass, Italian","[6]; Postemergence, 62 g ai/ha",0
same,"Plant response rating, Ryegrass, Italian","[6]; Postemergence, 125 g ai/ha",0
same,"Plant response rating, Ryegrass, Italian","[6]; Postemergence, 250 g ai/ha",0
same,"Plant response rating, Ryegrass, Italian","[6]; Postemergence, 500 g ai/ha",0
same,"Plant response rating, Field Bindweed","[7]; Postemergence, 31 g ai/ha",0
same,"Plant response rating, Field Bindweed","[7]; Postemergence, 62 g ai/ha",0
same,"Plant response rating, Field Bindweed","[7]; Postemergence, 125 g ai/ha",0
same,"Plant response rating, Field Bindweed","[7]; Postemergence, 250 g ai/ha",0
same,"Plant response rating, Field Bindweed","[7]; Postemergence, 500 g ai/ha",15
same,"Plant response rating, Corn","[8]; Postemergence, 31 g ai/ha",0
same,"Plant response rating, Corn","[8]; Postemergence, 62 g ai/ha",0
same,"Plant response rating, Corn","[8]; Postemergence, 125 g ai/ha",0
same,"Plant response rating, Corn","[8]; Postemergence, 250 g ai/ha",0
same,"Plant response rating, Corn","[8]; Postemergence, 500 g ai/ha",0
same,"Plant response rating, Soybean","[9]; Postemergence, 31 g ai/ha",0
same,"Plant response rating, Soybean","[9]; Postemergence, 62 g ai/ha",0
same,"Plant response rating, Soybean","[9]; Postemergence, 125 g ai/ha",0
same,"Plant response rating, Soybean","[9]; Postemergence, 250 g ai/ha",0
same,"Plant response rating, Soybean","[9]; Postemergence, 500 g ai/ha",0
ON=C(c1ccccc1)c1c[nH]nc1-c1cc(Cl)cc(Cl)c1 [Compound 50],"Plant response rating, Ryegrass, Italian","[6]; Postemergence, 31 g ai/ha",0
same,"Plant response rating, Ryegrass, Italian","[6]; Postemergence, 62 g ai/ha",0
same,"Plant response rating, Ryegrass, Italian","[6]; Postemergence, 125 g ai/ha",0
same,"Plant response rating, Ryegrass, Italian","[6]; Postemergence, 250 g ai/ha",0
same,"Plant response rating, Ryegrass, Italian","[6]; Postemergence, 500 g ai/ha",0
same,"Plant response rating, Field Bindweed","[7]; Postemergence, 31 g ai/ha",0
same,"Plant response rating, Field Bindweed","[7]; Postemergence, 62 g ai/ha",0
same,"Plant response rating, Field Bindweed","[7]; Postemergence, 125 g ai/ha",0
same,"Plant response rating, Field Bindweed","[7]; Postemergence, 250 g ai/ha",0
same,"Plant response rating, Field Bindweed","[7]; Postemergence, 500 g ai/ha",5
same,"Plant response rating, Corn","[8]; Postemergence, 31 g ai/ha",0
same,"Plant response rating, Corn","[8]; Postemergence, 62 g ai/ha",0
same,"Plant response rating, Corn","[8]; Postemergence, 125 g ai/ha",0
same,"Plant response rating, Corn","[8]; Postemergence, 250 g ai/ha",0
same,"Plant response rating, Corn","[8]; Postemergence, 500 g ai/ha",0
same,"Plant response rating, Soybean","[9]; Postemergence, 31 g ai/ha",0
same,"Plant response rating, Soybean","[9]; Postemergence, 62 g ai/ha",0
same,"Plant response rating, Soybean","[9]; Postemergence, 125 g ai/ha",0
same,"Plant response rating, Soybean","[9]; Postemergence, 250 g ai/ha",0
same,"Plant response rating, Soybean","[9]; Postemergence, 500 g ai/ha",0
